From patent US4536346A, “Aralkanamidophenyl compounds” (American Cyanamid Company, priority 1983, dated 1985)

Target: T1, fatty acyl CoA: cholesterol acyl transferase (ACAT) (Rattus norvegicus, UniProt O70536)
T1 construct: The supernatant, containing the microsomal fraction, served as the source of the cholesterol-esterifying enzyme; from tissue; host or cells: rat adrenals (1,000 x g supernatant containing the microsomal fraction)
T1 sequence (O70536 1-545): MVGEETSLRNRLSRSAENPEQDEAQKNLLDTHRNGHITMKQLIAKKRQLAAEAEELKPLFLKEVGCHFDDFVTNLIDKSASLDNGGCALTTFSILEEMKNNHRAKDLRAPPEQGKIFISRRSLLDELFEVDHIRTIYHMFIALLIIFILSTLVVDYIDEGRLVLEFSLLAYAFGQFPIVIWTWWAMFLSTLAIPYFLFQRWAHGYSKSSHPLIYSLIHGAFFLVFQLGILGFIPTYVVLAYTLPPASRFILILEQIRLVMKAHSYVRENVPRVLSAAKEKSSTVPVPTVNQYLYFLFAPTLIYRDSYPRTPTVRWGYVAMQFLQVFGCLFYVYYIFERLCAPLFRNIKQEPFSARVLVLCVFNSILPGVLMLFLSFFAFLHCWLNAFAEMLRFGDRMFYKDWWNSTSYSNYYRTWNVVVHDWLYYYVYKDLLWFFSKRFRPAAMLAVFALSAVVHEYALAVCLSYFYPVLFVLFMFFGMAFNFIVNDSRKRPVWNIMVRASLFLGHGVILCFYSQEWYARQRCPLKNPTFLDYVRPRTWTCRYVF
Test: Inhibition of enzymatic esterification of cholesterol (ACAT) in rat adrenal supernatant containing the microsomal fraction
Assay type: biochemical
Conditions: final concentration of test compound 5.2 μg./ml., percent inhibition of the ACAT enzyme compared to control values
Description: The compounds of the present invention were tested for their ability to inhibit the enzymatic esterification of cholesterol according to the following procedure:
Rat adrenals were homogenized in 0.2M monobasic potassium phosphate buffer, pH 7.4, and centrifuged at 1,000 times gravity for 15 minutes at 5° C. The supernatant, containing the microsomal fraction, served as the source of the cholesterol-esterifying enzyme, fatty acyl CoA: cholesterol acyl transferase (ACAT). A mixture comprising 50 parts of adrenal supernatant, 10 parts of albumin (BSA) (50 mg./ml.), […], 3 parts of test compound, and 500 parts of buffer was pre-incubated at 37° C. for 10 minutes. After treatment with 20 parts of oleoyl CoA (^14 C-0.4 μCi), the mixture was incubated at 37° C. for 10 minutes. A control mixture, omitting the test compound, was prepared and treated in the same manner. The lipids from the incubation mixture were extracted into an organic solvent and separated by thin-layer chromatography. The cholesterol ester fraction was counted in a scintillation counter. This procedure is a modification of that described by Hashimoto, et al., Life Scie., 12 (Part II), 1-12 (1973).
The results of this test on representative compounds of this invention appear in Table I. The final concentration of the test compound was 5.2 μg./ml., and the effectiveness of the compound is expressed as percent inhibition of the ACAT enzyme compared to control values.

Row | inhibition at 5.2 µg/mL | SMILES
1 | 88% | CCOC(=O)c1ccc(NC(=O)C=C(c2ccccc2)c2ccc(C)cc2)cc1 [4-(p-Methyl-β-phenylcinnamamido)benzoic acid, ethyl ester]
2 | 80% | Cc1ccc(C(=CC(=O)Nc2ccc(C(=O)O)cc2)c2ccccc2)cc1 [4-(p-Methyl-β-phenylcinnamamido)benzoic acid]
3 | 25% | CCOC(=O)c1ccc(NC(=O)CCc2ccc(C)cc2)cc1 [4-(p-Methylhydrocinnamamido)benzoic acid, ethyl ester]
4 | 41% | O=C(C=Cc1ccc(Cl)cc1)Nc1ccc(C(=O)O)cc1 [4-(p-chlorocinnamamido)benzoic acid, 4-(p-Chlorocinnamamido)benzoic acid]
5 | 86% | CCOC(=O)c1ccc(NC(=O)C(c2ccc(Cl)cc2)c2ccc(Cl)cc2)cc1 [4-[2,2-Bis(p-chlorophenyl)acetamido]benzoic acid, ethyl ester]
6 | 71% | O=C(O)c1ccc(NC(=O)C(c2ccc(Cl)cc2)c2ccc(Cl)cc2)cc1 [4-[2,2-Bis(p-chlorophenyl)acetamido]benzoic acid]
7 | 96% | CCOC(=O)c1ccc(NC(=O)C=C(c2ccc(Br)cc2)c2ccc(Br)cc2)cc1 [4-[3,3-Bis(p-bromophenyl)acrylamido]benzoic acid, ethyl ester]
8 | 90% | O=C(C=C(c1ccc(Br)cc1)c1ccc(Br)cc1)Nc1ccc(C(=O)O)cc1 [4-[3,3-Bis(p-bromophenyl)acrylamido]benzoic acid]
9 | 93% | CCOC(=O)c1ccc(NC(=O)C=C(c2ccc(Cl)cc2)c2ccc(Cl)cc2)cc1 [4-[3,3-Bis(p-chlorophenyl)acrylamido]benzoic acid, ethyl ester]
10 | 91% | O=C(C=C(c1ccc(Cl)cc1)c1ccc(Cl)cc1)Nc1ccc(C(=O)O)cc1 [4-[3,3-Bis(p-chlorophenyl)acrylamido]benzoic acid]
11 | 94% | CCOC(=O)c1ccc(NC(=O)CC(c2ccc(Cl)cc2)c2ccc(Cl)cc2)cc1 [4-[3,3-Bis(p-chlorophenyl)propionamido]benzoic acid, ethyl ester]
12 | 71% | O=C(CC(c1ccc(Cl)cc1)c1ccc(Cl)cc1)Nc1ccc(C(=O)O)cc1 [4-[3,3-Bis(p-chlorophenyl)propionamido]benzoic acid]
13 | 74% | CCOC(=O)c1ccc(NC(=O)C=C(c2ccc(F)cc2)c2ccc(F)cc2)cc1 [4-[3,3-Bis(p-fluorophenyl)acrylamido]benzoic acid, ethyl ester]
14 | 79% | O=C(C=C(c1ccc(F)cc1)c1ccc(F)cc1)Nc1ccc(C(=O)O)cc1 [4-[3,3-Bis(p-fluorophenyl)acrylamido]benzoic acid]
15 | 97% | CCOC(=O)c1ccc(NC(=O)C=C(c2ccc(OC)cc2)c2ccc(OC)cc2)cc1 [4-[3,3-Bis(p-methoxyphenyl)acrylamido]benzoic acid, ethyl ester]
16 | 78% | COc1ccc(C(=CC(=O)Nc2ccc(C(=O)O)cc2)c2ccc(OC)cc2)cc1 [4-[3,3-Bis(p-methoxyphenyl)acrylamido]benzoic acid]
17 | 97% | CCOC(=O)c1ccc(NC(=O)C=C(c2ccc(C)cc2)c2ccc(C)cc2)cc1 [4-[3,3-Di-(p-tolyl)acrylamido]benzoic acid, ethyl ester]
18 | 89% | Cc1ccc(C(=CC(=O)Nc2ccc(C(=O)O)cc2)c2ccc(C)cc2)cc1 [4-[3,3-Di-(p-tolyl)acrylamido]benzoic acid]
19 | 42% | CCOC(=O)c1ccc(NC(=O)CCCCCc2ccc(Cl)cc2)cc1 [4-[6-(p-Chlorophenyl)hexanamido]benzoic acid, ethyl ester]
20 | 88% | CCOC(=O)COC(=O)c1ccc(NC(=O)C=C(c2ccc(Cl)cc2)c2ccc(Cl)cc2)cc1 [4-[p-Chloro-β-(p-chlorophenyl)cinnamamido]benzoic acid, ethyl glycolate ester]
21 | 91% | CCOC(=O)c1ccc(NC(=O)CC(c2ccc(OC)cc2)c2ccc(OC)cc2)cc1 [Ethyl 4'-[3,3-bis(4-methoxyphenyl)propionamido]benzoate]
22 | 95% | CCOC(=O)c1ccc(NC(=O)CC(c2ccc(C)cc2)c2ccc(C)cc2)cc1 [Ethyl 4'-[3,3-bis(4-methylphenyl)propionamido]benzoate]

Row | inhibition at 5.2 µg/mL | SMILES
23 | 95% | CC(=O)c1ccc(NC(=O)CC(c2ccc(Cl)cc2)c2ccc(Cl)cc2)cc1 [N--(4-Acetylphenyl)-3,3-bis(p-chlorophenyl)propionamide]
24 | 96% | N#Cc1ccc(NC(=O)CC(c2ccc(Cl)cc2)c2ccc(Cl)cc2)cc1 [N--(4-Cyanophenyl)-3,3-bis(p-chlorophenyl)propionamide]
25 | 67% | O=C(CC(c1ccc(Cl)cc1)c1ccc(Cl)cc1)Nc1ccc(F)cc1 [N--(4-Fluorophenyl)-3,3-bis(p-chlorophenyl)propionamide]
26 | 36% | Cc1ccc(NC(=O)CC(c2ccc(Cl)cc2)c2ccc(Cl)cc2)cc1 [N--(4-Tolyl)-3,3-bis(p-chlorophenyl)propionamide]
27 | 35% | O=C(CC(c1ccc(Cl)cc1)c1ccc(Cl)cc1)Nc1ccc(C(F)(F)F)cc1 [N--(4-Trifluoromethylphenyl)-3,3-bis(p-chlorophenyl)propionamide]
28 | 79% | COc1ccc(C(CC(=O)Nc2ccc(Br)cc2)c2ccc(OC)cc2)cc1 [N--(p-Bromophenyl)-3,3-bis(4-methoxyphenyl)propionamide]
29 | 91% | COc1ccc(C(CC(=O)Nc2ccc(Cl)cc2)c2ccc(OC)cc2)cc1 [N--(p-Chlorophenyl)-3,3-bis(4-methoxyphenyl)propionamide]
30 | 89% | Cc1ccc(C(CC(=O)Nc2ccc(Cl)cc2)c2ccc(C)cc2)cc1 [N--(p-Chlorophenyl)-3,3-bis(p-tolyl)propionamide]
31 | 94% | COc1ccc(C(CC(=O)Nc2ccc(C#N)cc2)c2ccc(OC)cc2)cc1 [N--(p-Cyanophenyl)-3,3-bis(4-methoxyphenyl)propionamide]
32 | 90% | Cc1ccc(C(CC(=O)Nc2ccc(C#N)cc2)c2ccc(C)cc2)cc1 [N--(p-Cyanophenyl)-3,3-bis(p-tolyl)propionamide]
33 | 92% | COc1ccc(C(CC(=O)Nc2ccc(F)cc2)c2ccc(OC)cc2)cc1 [N--(p-Fluorophenyl)-3,3-bis(4-methoxyphenyl)propionamide]
34 | 92% | Cc1ccc(C(CC(=O)Nc2ccc(F)cc2)c2ccc(C)cc2)cc1 [N--(p-Fluorophenyl)-3,3-bis(p-tolyl)propionamide]
35 | 58% | COc1ccc(NC(=O)CC(c2ccc(OC)cc2)c2ccc(OC)cc2)cc1 [N--(p-Methoxyphenyl)-3,3-bis(4-methoxyphenyl)propionamide]
36 | 94% | COc1ccc(C(CC(=O)Nc2ccc([N+](=O)[O-])cc2)c2ccc(OC)cc2)cc1 [N--(p-Nitrophenyl)-3,3-bis(4-methoxyphenyl)propionamide]
37 | 97% | COc1ccc(C(CC(=O)Nc2ccc(C)cc2)c2ccc(OC)cc2)cc1 [N--(p-Tolyl)-3,3-bis(4-methoxyphenyl)propionamide]
38 | 66% | Cc1ccc(NC(=O)CC(c2ccc(C)cc2)c2ccc(C)cc2)cc1 [N--(p-Tolyl)-3,3-bis(p-tolyl)propionamide]
39 | 92% | COc1ccc(C(CC(=O)Nc2ccc(C(F)(F)F)cc2)c2ccc(OC)cc2)cc1 [N--(p-Trifluoromethylphenyl)-3,3-bis(4-methoxyphenyl)propionamide]
40 | 94% | Cc1ccc(C(CC(=O)Nc2ccc(C(F)(F)F)cc2)c2ccc(C)cc2)cc1 [N--(p-Trifluoromethylphenyl)-3,3-bis(p-tolyl)propionamide]
41 | 91% | COc1ccc(C(CC(=O)Nc2ccccc2)c2ccc(OC)cc2)cc1 [N--Phenyl-3,3-bis(4-methoxyphenyl)propionamide]
42 | 50% | O=C(CC(c1ccc(Cl)cc1)c1ccc(Cl)cc1)Nc1ccccc1 [N--Phenyl-3,3-bis(p-chlorophenyl)propionamide]
43 | 82% | Cc1ccc(C(CC(=O)Nc2ccccc2)c2ccc(C)cc2)cc1 [N--Phenyl-3,3-bis(p-tolyl)propionamide]
